The values below come from US8268814B2, “Substituted sulfonamide compounds” (Gruenenthal GmbH, priority 2008, dated 2012).

This assay has as its target T1, B1R receptor of the rat (rB1R) (Rattus norvegicus, UniProt P97583).
T1 construct: expressed in transfected cells; host or cells: CHO K1 cells (Chinese hamster ovary), stably transfected
T1 sequence (P97583 1-337): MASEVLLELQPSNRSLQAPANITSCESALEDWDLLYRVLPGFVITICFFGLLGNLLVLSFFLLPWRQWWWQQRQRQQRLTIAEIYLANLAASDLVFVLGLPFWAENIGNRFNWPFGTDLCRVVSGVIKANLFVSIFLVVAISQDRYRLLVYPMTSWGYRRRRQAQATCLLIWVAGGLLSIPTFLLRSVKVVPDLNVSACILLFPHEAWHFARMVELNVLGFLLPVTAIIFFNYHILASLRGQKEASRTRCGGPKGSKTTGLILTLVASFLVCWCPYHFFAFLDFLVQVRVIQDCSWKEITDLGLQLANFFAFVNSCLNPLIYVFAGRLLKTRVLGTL
Briefly: Functional FLIPR Ca2+ assay on the bradykinin 1 receptor, rat (rB1R CHO K1 cells). The format is cell-based. The following applies: test substance 10 μM; CHO K1 cells transfected with rat B1R gene; agonist Des-Arg9-bradykinin at EC80; % inhibition compared with maximum achievable inhibition; read-out: B1R antagonism, rat [10 μM] % inhibition. As for the experimental part: The agonistic or antagonistic action of substances can be quantified on the bradykinin 1 receptor (B1R) of the human and rat species with ectopically expressing cell lines (CHO K1 cells) and with the aid of a Ca^2+-sensitive dyestuff (Fluo-4) in a fluorescent imaging plate reader (FLIPR). The figure in % activation is based on the Ca^2+ signal after addition of Lys-Des-Arg^9-bradykinin (0.5 nM) or Des-Arg^9-bradykinin (100 nM). Antagonists lead to a suppression of the Ca^2+ inflow after addition of the agonist. % inhibition compared with the maximum achievable inhibition is stated.
The agonistic or antagonistic action of substances can be determined on the bradykinin 1 receptor (B1R) of the human and rat species with the following assay. In accordance with this assay, the Ca^2+ inflow through the channel is quantified with the aid of a Ca^2+-sensitive dyestuff (type Fluo-4, Molecular Probes Europe BV, Leiden, Holland) in a fluorescent imaging plate reader (FLIPR, Molecular Devices, Sunnyvale, USA).
Chinese hamster ovary cells (CHO K1 cells) transfected stably with the human B1R gene (hB1R cells) or the B1R gene of the rat (rB1R cells) are used. For functional studies, these cells are plated out on black 96-well plates with a clear base (BD Biosciences, Heidelberg, Germany or Greiner, Frickenhausen, Germany) in a density of 20,000-35,000 cells/well. The cells are left overnight at 37° C. and 5% CO2 in culture medium (hB1R cells: Nutrient Mixture Ham's F12, Gibco Invitrogen GmbH, Karlsruhe, Germany or DMEM, Sigma-Aldrich, Taufkirchen, Germany; rB1R cells: D-MEM/F12, Gibco Invitrogen GmbH, Karlsruhe, Germany) with 10 vol. % FBS (foetal bovine serum, Gibco Invitrogen GmbH, Karlsruhe, Germany or PAN Biotech GmbH, Aidenbach, Germany). On the following day, the cells are loaded for 60 min at 37° C. with 2.13 μM Fluo-4 (Molecular Probes Europe BV, Leiden, Holland) in HBSS buffer (Hank's buffered saline solution, Gibco Invitrogen GmbH, Karlsruhe, Germany) with 2.5 mM probenecid (Sigma-Aldrich, Taufkirchen, Germany) and 10 mM HEPES (Sigma-Aldrich, Taufkirchen, Germany). The plates are then washed 2× with HBSS buffer, and HBSS buffer which additionally contains 0.1% BSA (bovine serum albumin; Sigma-Aldrich, Taufkirchen, Germany), 5.6 mM glucose and 0.05% gelatine (Merck KgaA, Darmstadt, Germany) is added. After a further incubation of 20 minutes at room temperature, the plates are inserted into the FLIPR for the Ca^2+ measurement.
Alternatively, the plates are washed with buffer A (15 mM HEPES, 80 mM NaCl, 5 mM KCl, 1.2 mM CaCl2, 0.7 mM MgSO4, 2 g/l glucose, 2.5 mM probenecid), buffer A is added and the plates are loaded with 2.5 μM Fluo-4 and 0.025% Pluronic F127 (Sigma-Aldrich, Taufkirchen, Germany). Thereafter, the cells are washed 2× with buffer A and incubated for 30 minutes with buffer A, which additionally contains 0.05% BSA and 0.05% gelatine, at room temperature and thereafter inserted into the FLIPR for the Ca^2+ measurement. The Ca^2+-dependent fluorescence is measured here before and after addition of substances (λex=488 nm, λem=540 nm). Quantification is by measurement of the highest fluorescence intensity (FC, fluorescence counts) over time.
The FLIPR protocol consists of 2 additions of substance. Test substances (10 μM) are first pipetted on to the cells and the Ca^2+ inflow is compared with the control (hB1R: Lys-Des-Arg^9-bradykinin >=50 nM; rB1R: Des-Arg^9-bradykinin 10 μM). This gives the figure in % activation based on the Ca^2+ signal after addition of Lys-Des-Arg^9-bradykinin (>=50 nM) or Des-Arg^9-bradykinin (10 μM). After incubation for 10-20 minutes, Lys-Des-Arg^9-bradykinin (hB1R) or Des-Arg^9-bradykinin (rB1R) in the concentration of the EC80 is applied and the inflow of Ca^2+ is likewise determined. Antagonists lead to a suppression of the Ca^2+ inflow. % inhibition compared with the maximum achievable inhibition is calculated. In order to determine the IC50 value, the substances are added in various concentrations. […]
The inhibition is the drop in the measured response relative to a control, in per cent. On to `COc1cc(C)c(S(=O)(=O)N(C)CCOCC(=O)N2CCc3sc(CN4CCN(C)CC4)cc3C2)c(C)c1C` [Example 95, 4-Methoxy-N,2,3,6-tetramethyl-N-[2-[2-[2-[(4-methyl-piperazin-1-yl)-methyl]-4,5,6,7-tetrahydro-thieno[3,2-c]pyridin-5-yl]-2-oxo-ethoxy]-ethyl]-benzenesulfonic acid amide], for which the inhibition at 10 µM is 99%. The value for `COc1cc(C)c(S(=O)(=O)N2CCCCC2CCCC(=O)N2CCc3[nH]cnc3C2c2ccccc2)c(C)c1` (stereo not shown) [Example 71, 4-[1-[(4-Methoxy-2,6-dimethyl-phenyl)sulfonyl]-piperidin-2-yl]-1-(4-phenyl-4,5,6,7-tetrahydro-1H-imidazo[4,5-c]pyridin-5-yl)-butan-1-one] was 101%. Then `O=C(CCCC1CCCCN1S(=O)(=O)c1ccc2ccccc2c1)N1CCc2[nH]cnc2C1c1ccccc1` (stereo not shown) [Example 76, 4-[1-(Naphthalen-2-ylsulfonyl)-piperidin-2-yl]-1-(4-phenyl-4,5,6,7-tetrahydro-1H-imidazo[4,5-c]pyridin-5-yl)-butan-1-one], with 48%; and `CN1CCN(Cc2cc3c(s2)CCN(C(=O)COCC2CCCCN2S(=O)(=O)c2ccccc2C(F)(F)F)C3)CC1` (stereo not shown) [Example 97, 1-[2-[(4-Methyl-piperazin-1-yl)-methyl]-4,5,6,7-tetrahydro-thieno[3,2-c]pyridin-5-yl]-2-[[1-[[2-(trifluoromethyl)-phenyl]sulfonyl]-piperidin-2-yl]-methoxy]-ethanone], with 96%. Then `CN1CCN(Cc2cc3c(s2)CCN(C(=O)CCCC2CCCCN2S(=O)(=O)c2cccc4ccccc24)C3)CC1` (stereo not shown) [Example 73, 1-[2-[(4-Methyl-piperazin-1-yl)-methyl]-4,5,6,7-tetrahydro-thieno[3,2-c]pyridin-5-yl]-4-[1-(naphthalen-1-ylsulfonyl)-piperidin-2-yl]-butan-1-one], with 99%. On to `O=C(CCCC1CCCCN1S(=O)(=O)c1cccc2ccccc12)N1CCc2[nH]cnc2C1c1ccccc1` (stereo not shown) [Example 74, 4-[1-(Naphthalen-1-ylsulfonyl)-piperidin-2-yl]-1-(4-phenyl-4,5,6,7-tetrahydro-1H-imidazo[4,5-c]pyridin-5-yl)-butan-1-one], for which the inhibition at 10 µM came out at 95%. For the compound `COc1cc(C)c(S(=O)(=O)N2c3ccccc3CCC2COCC(=O)N2CCc3[nH]cnc3C2c2ccccc2)c(C)c1` (stereo not shown) [Example 86, 2-[[1-[(4-Methoxy-2,6-dimethyl-phenyl)sulfonyl]-1,2,3,4-tetrahydro-quinolin-2-yl]-methoxy]-1-(4-phenyl-4,5,6,7-tetrahydro-1H-imidazo[4,5-c]pyridin-5-yl)-ethanone], the inhibition at 10 µM is 96%. Turning to `CN1CCN(Cc2cc3c(s2)CCN(C(=O)COCC2COc4ccccc4N2S(=O)(=O)c2ccccc2C(F)(F)F)C3)CC1` (stereo not shown) [Example 93, 1-[2-[(4-Methyl-piperazin-1-yl)-methyl]-4,5,6,7-tetrahydro-thieno[3,2-c]pyridin-5-yl]-2-[[4-[[2-(trifluoromethyl)-phenyl]sulfonyl]-3,4-dihydro-2H-[1,4]benzoxazin-3-yl]-methoxy]-ethanone], the inhibition at 10 µM was 93%.

With `O=C(COCC1COc2ccccc2N1S(=O)(=O)c1ccccc1C(F)(F)F)N1CCc2[nH]cnc2C1c1ccccc1` (stereo not shown) [Example 94, 1-(4-Phenyl-4,5,6,7-tetrahydro-1H-imidazo[4,5-c]pyridin-5-yl)-2-[[4-[[2-(trifluoromethyl)-phenyl]sulfonyl]-3,4-dihydro-2H-[1,4]benzoxazin-3-yl]-methoxy]-ethanone], the inhibition at 10 µM was determined as 36%. For the compound `COc1cc(C)c(S(=O)(=O)N(CCOCC(=O)N2CCc3sc(CN4CCN(C)CC4)cc3C2)c2ccccc2)c(C)c1` [Example 83, 4-Methoxy-2,6-Dimethyl-N-[2-[2-[2-[(4-methyl-piperazin-1-yl)-methyl]-4,5,6,7-tetrahydro-thieno[3,2-c]pyridin-5-yl]-2-oxo-ethoxy]-ethyl]-N-phenyl-benzenesulfonic acid amide], the inhibition at 10 µM was 101%. The value for `CN1CCN(Cc2cc3c(s2)CCN(C(=O)CCCC2CCCCN2S(=O)(=O)c2ccc4ccccc4c2)C3)CC1` (stereo not shown) [Example 75, 1-[2-[(4-Methyl-piperazin-1-yl)-methyl]-4,5,6,7-tetrahydro-thieno[3,2-c]pyridin-5-yl]-4-[1-(naphthalen-2-ylsulfonyl)-piperidin-2-yl]-butan-1-one] was 103%.

As to `COc1cc(C)c(S(=O)(=O)N(CCOCC(=O)N2CCc3sc(CN4CCN(C)CC4)cc3C2)Cc2ccccc2)c(C)c1` [Example 81, N-Benzyl-4-Methoxy-2,6-dimethyl-N-[2-[2-[2-[(4-methyl-piperazin-1-yl)-methyl]-4,5,6,7-tetrahydro-thieno[3,2-c]pyridin-5-yl]-2-oxo-ethoxy]-ethyl]-benzenesulfonic acid amide], the inhibition at 10 µM worked out at 102%. For `Cc1cccc(Cl)c1S(=O)(=O)N1CCCCC1CCCC(=O)N1CCc2sc(CN3CCN(C)CC3)cc2C1` (stereo not shown) [Example 68, 4-[1-[(2-Chloro-6-methyl-phenyl)sulfonyl]-piperidin-2-yl]-1-[2-[(4-methyl-piperazin-1-yl)-methyl]-4,5,6,7-tetrahydro-thieno[3,2-c]pyridin-5-yl]-butan-1-one], the inhibition at 10 µM was 103%. The value for `COc1cc(C)c(S(=O)(=O)N2c3ccccc3OCC2COCC(=O)N2CCc3sc(CN4CCN(C)CC4)cc3C2)c(C)c1` (stereo not shown) [Example 91, 2-[[4-[(4-Methoxy-2,6-dimethyl-phenyl)sulfonyl]-3,4-dihydro-2H-[1,4]benzoxazin-3-yl]-methoxy]-1-[2-[(4-methyl-piperazin-1-yl)-methyl]-4,5,6,7-tetrahydro-thieno[3,2-c]pyridin-5-yl]-ethanone] was 103%; that for `O=C(CCCC1CCCCN1S(=O)(=O)c1ccccc1C(F)(F)F)N1CCc2[nH]cnc2C1c1ccccc1` (stereo not shown) [Example 88, 1-(4-Phenyl-4,5,6,7-tetrahydro-1H-imidazo[4,5-c]pyridin-5-yl)-4-[1-[[2-(trifluoromethyl)-phenyl]sulfonyl]-piperidin-2-yl]-butan-1-one] was 65%; that for `COc1cc(C)c(S(=O)(=O)N(CCOCC(=O)N2CCc3[nH]cnc3C2c2ccccc2)c2ccccc2)c(C)c1` (stereo not shown) [Example 84, 4-Methoxy-2,6-Dimethyl-N-[2-[2-oxo-2-(4-phenyl-4,5,6,7-tetrahydro-1H-imidazo[4,5-c]pyridin-5-yl)-ethoxy]-ethyl]-N-phenyl-benzenesulfonic acid amide] was 97%.
